Type in all cases: cell-based
One test concerns breast cancer cell lines. The test can be described thus: MTT cell proliferation assay, breast cancer cell lines. The conditions noted are these: single agents, all the breast cancer cell lines, 72 hours; read-out: IC50, growth and viability. The protocol:
(§1) Cells were grown in 96-well plates with DNA ligase I/III inhibitor L67 (up to 60 μmol/L) and/or the PARP inhibitor ABT888 (up to 80 μmol/L) for 72 hours. Approximately 20 hours prior to evaluation, MTT labeling reagent (MTT in PBS; Roche) was added to each well. After incubating for 4 hours with the MTT labeling reagent, solubilization solution (10% SDS in 0.01 mol/L HCl; Roche) was added to solubilize the formazan salt crystals. The results were spectrophotometrically quantified by a VersaMax Microplate Reader at a wavelength of 550 nm and a reference wavelength of 650 nm. The effect of combining the DNA repair inhibitors was analyzed by determining the combination index (CI) described by Chou and Talalay (18, 19) with Calcusyn software (version 2.0; Biosoft). This calculation takes into account of both potency (median dose, Dm or IC50) and the shape of the dose-effect curve (the m value) to calculate the CI. L67 and ABT888 were combined at fixed ratios of doses that corresponded to 0.0001, 0.001, 0.005, 0.01, 0.05, 0.1, 0.5, 1, and 10 times the individual IC50 values. Synergy, additivity, and antagonism are defined as CI<1, CI ¼ 1, and CI>1, respectively.

The subject of the next test is MCF10A. The test can be described thus: MTT cell proliferation assay, MCF10A. The note with it: single agents, 72 hours, read-out: IC50, growth. The protocol: as §1
For test [1], the system named is tumorigenic cell lines (MCF7, TAM1, TAM2, TAM3, LTLT). The experiment in a line: Colony survival assay, MCF7 and therapy-resistant derivatives. The conditions noted are these: L67 0.5 μmol/L or ABT888 0.125 μmol/L alone, 10-day growth, compared with MCF10A. The protocol:
(§2) Cells were seeded at a density of 1,000 cells per well in methylcellulose-based medium in the presence of DNA ligase I/III inhibitor, L67 (0.5 μmol/L; ref. 10); PARP inhibitor, ABT888 (0.125 μmol/L); or L67 (0.5 μmol/L) and ABT888 (0.125 μmol/L) for approximately 10 days. Colonies were stained with 2-(4-iodophenyl)-3-(4-nitrophenyl)-5-phenlytetrazolium chloride (1 mg/mL) for 16 to 24 hours before evaluation. Vital colonies were counted with an automated image analysis system (Omincon FAS IV, BIOSYS GmbH). Experiments were conducted at least 3 times, and results are representative of the mean of 3 independent experiment ±SEM.

Test [2] relates to MCF7 cells following siRNA knockdown of Ku70. The test can be described thus: Colony survival assay, MCF7 after siRNA knockdown of Ku70. The note with it: Ku70 knockdown versus siRNA control, 1 μmol/L, 10-day growth. The protocol:
as §2
Target plus SMART pool siRNA oligonucleotides for G22P1, DNA ligase III, and Ku70 mRNAs were purchased from Dharmacon RNA Technologies. The oligonucleotides were transiently transfected into cells with Amaxa Nucleofector Kit V (VCA-1003) in Nucleofector II Amaxa Biosystems. For transfection, […] of 20 μmol/L siRNA was used per 2×10^6 cells. […] Cells were harvested for Western blotting 72 hours after transfection. siRNA nontargeting pool (Dharmacon RNA Technologies) was used as a control.

Experimental findings from patent publication US9623008B2, “Targeting abnormal DNA repair in therapy-resistant breast and pancreatic cancers” (STC.UNM, priority 2012, dated 2017) are described below.

The structures appear in SMILES notation. Entries after “also recorded” stand apart in the source; their conditions may differ. Read-outs that look alike come from different tables or passages of the source.

For `C[C@]1(c2nc3c(C(N)=O)cccc3[nH]2)CCCN1` [ABT888, Veliparib], the IC50 in the test on breast cancer cell lines is around 8 µM; with MCF10A (Homo sapiens, MCF-10A), around 10 µM. Further, the “colony survival, inhibitor alone” value in test [1] was “small reductions”.

As for `Cc1c(Br)cc(NCC(=O)NN=Cc2cc([N+](=O)[O-])ccc2O)cc1Br` [L67], the IC50 in the test with breast cancer cell lines and in the test on MCF10A was around 6 µM in each case. In addition, the “colony survival, inhibitor alone” value in test [1] was “small reductions; also recorded: little effect”.

With `N#Cc1ccc(C(c2ccc(C#N)cc2)n2cncn2)cc1` [letrozole], the “sensitivity (colony survival)” value in test [2] is “decreased sensitivity”.

Take `CC/C(=C(\c1ccccc1)c1ccc(OCCN(C)C)cc1)c1ccccc1` [tamoxifen]: the “sensitivity (colony survival)” value in test [2] is “decreased sensitivity”.
